# Data published in patent US20110060045A1, “ANTI-DIABETIC CATARACT COMPOUNDS AND THEIR USES” (NATIONAL RESEARCH COUNCIL OF CANADA, priority 2006, published 2011).
# Where “and” joins values, the source holds several entries; their conditions need not be identical. Equal values may be shown once. Read-outs that look alike come from different tables or passages of the source.
# Assays:
# [1] = tested on: dog; conditions: intravenous injection, compared with (R,S)-isoproterenol; cited from earlier work
# [2] = target: T1, bovine serum albumin (BSA) with D-ribose (Bos taurus, UniProt P02769); assay: Maillard fluorescence-based anti-glycation assay; conditions: in vitro anti-glycation; for IC50: BSA 0.075 mM, D-ribose 50 mM, 37° C., 5 days; for Imax: maximum inhibition of Maillard fluorescence
# Protocol: (§3) The Maillard fluorescence-based assay was used to screen anti-glycation activity of approximately 1,300 drugs or drug candidates. […] Briefly the assay involved incubation of bovine serum albumin (BSA) (0.075 mM) with D-ribose (50 mM) and an assay compound (0.47, 4.7 and 47 μg/mL). Solutions were incubated at 37° C. for 5 days.
# [3] = tested on: human eyes; conditions: cited from earlier work
# [4] = Body weight of non-diabetic and diabetic rats; type: in vivo, rat
# Protocol: (§1) Eye drops or vehicle were administered twice a day, seven days a week, on the cornea of different groups of rats, with a minimum interval of 7 h between the two treatments. To promote weight gain and limit hyperglycemia, diabetic rats were injected sub-cutaneously with 2 IU ultralente insulin (Humulin, Eli Lilly, Toronto, ON, Canada) three times a week. Animal weights were monitored every week.
# [5] = tested on: PC12 cells; assay: Anti-oxidant activity against oxidative stress by H2O2 at the cellular level; type: cell-based; conditions: 10-100 μM; H2O2 killed over 80% of the PC12 cells
# Source text: Glycation includes oxidative processes and is closely related to oxidative stress. […] The oxidative stress by H2O2 induces apoptosis in vitro and in vivo, and effective anti-oxidants such as N-acetyl-cysteine reduces the oxidative stress and protects the cells from the apoptosis.
# [6] = large intravenous dose; cited from earlier work
# [7] = pKa of the aromatic dihydroxyl group; type: physicochemical
# [8] = tested on: human eye; conditions: cited from earlier work
# [9] = better than epinephrine; cited from earlier work
# [10] = tested on: Streptozotocin-injected diabetic rats; assay: Diabetic cataract initiation and progression in Streptozotocin-injected rats, eye drops; type: in vivo, rat; conditions: for Time entered in level 4 / Time stayed in level 0 / Time stayed in level 1 / Time stayed in level 2 / Time stayed in level 3: individual diabetic rats with drug; for Time entered in level 4 / Time stayed in level 0 / Time stayed in level 1 / Time stayed in level 2 / Time stayed in level 3 / Time stayed in level 0 (cataract initiation), Av ± STD / Time stayed in level 1, Av ± STD / Time stayed in level 2, Av ± STD / Time stayed in level 3, Av ± STD: hydrochloride; for Time stayed in level 0 (cataract initiation), Av ± STD / Time stayed in level 1, Av ± STD / Time stayed in level 2, Av ± STD / Time stayed in level 3, Av ± STD: diabetic rats with drug, n=17, both eyes; for Time stayed in level 0 (cataract initiation), Av ± STD: 0.10% eye drop twice a day
# Source text: A rat model was used to study the effect of (S)-isoproterenol on diabetic cataract, that of streptozotocin-injection to induce diabetes by destroying the β-cells of the pancreas. This model has been widely used to study diabetes-related pathological events and their possible treatments (Dagher et al., 2004; Ben-nun et al., 2004; Chung et al., 2005). The rat model has an advantage of rapid formation of diabetic cataract such that initial cataract was observed as early as 8-9 weeks in the majority of the control diabetic rats. Two-month-old male Sprague-Dawley rats were purchased from Charles River, Canada. They were housed in the Biotechnology Research Institute (BRI)—animal facility. Housing and all experimental manipulations were approved by the BRI Animal Care Committee that functions under the guidelines of the Canadian Council of Animal Care.
# (§2) The pH of the eye drop was adjusted to 5.5 with 1N—HCl. […] The eye drop was freshly prepared every month and was stored at 4° C. […] The size of each eye drop was 50 μL.
# Diabetes was induced in male Sprague-Dawley rats weighing approximately 200 to 250 g by a single intraperitoneal injection of the beta-cell toxin, Streptozotocin (STZ) (Sigma, St. Louis, […].), at a dose of 60 mg/kg body weight in 0.1M citrate buffer pH 4.5. Non-diabetic control rats received citrate buffer only.
# as §1
# Cataract progression was monitored by visual examination, twice a week. A scoring system was devised to evaluate the severity of the cataract. A healthy eye was given a score of 0 (normal level); when a faint pinkish hue was discernable (level 1), cataract formation was in its earliest stage of being visually detected and this stage was given a score of 1. When a white film is clearly detectable (level 2), a score of 2 was assigned. When the film covers the entire eye, but the pupils are still visible (level 3), a score of 3 was assigned, and finally the cataract was considered most severe (score of 4) when the pupil was not detected due to the formation of the white film (level 4).
# [11] = Storage stability of the eye drop (HPLC profiles); type: physicochemical; conditions: eye drop pH 5.5, one month of storage at 4° C.
# Protocol: as §2
# [12] = tested on: PC12 cells; assay: Cytotoxicity in PC12 cells (MTT assay); type: cell-based
# Protocol: The cytotoxicity of (S)-isoproterenol dipivalate was measured by using PC12 cells. […] PC12 cells were seeded onto rat-tail collagen coated 96-well plates at a density of 2×10^4 cells/well and cultivated for one day. On the day of the experiment, dilutions of (S)-isoproterenol dipivalate ranging from 100 μM to 10 mM were prepared in complete medium. […] At the end of the incubation times, the medium was aspirated and 100 μL of a solution of MTT (3-(4,5-dimethylthiazol-2-yl)-2,5-diphenyltetrazolium; 0.2 mg/ml in complete medium) was added to the cells. After incubation at 37° C. for 2 hours, MTT was removed and the colored formazan was dissolved in dimethyl sulfoxide (DMSO) (½ hour at 37° C.). Reduction was measured by colorimetric detection (595 nm) of the blue insoluble formazan product. This assay provides an estimate of the number of functioning mitochondria present in the cells; i.e. the quantity of formazan product is directly proportional to the number of metabolically active cells in the culture. The viability of PC12 cells in each well was presented as percentage of control cells.
# [13] = tested on: human corneal epithelial cells (HCEC cells); conditions: human cornea epithelial cells, under the microscope
# Protocol: HCEC cells were grown in EpiLife medium supplemented with human corneal growth supplements (HCGS; Cascade Biologics). The cells were maintained at 37° C. in a humidified atmosphere containing 5% CO2 and the medium was changed every other day. HCEC cells were seeded onto 96-well plates at a density of approximately 10^3 cells/well and cultivated for one day. […] The medium was aspirated and the treatments were applied to the cells (in triplicates) for different incubation times (5 minutes to 2 hours and 24 hours). At the end of the incubation times, the survival of the cells was visually examined under microscope.
# [14] = target: T1, bovine serum albumin (BSA) with D-ribose; assay: biochemical
# Protocol: as §3
# [15] = 2.47% instilled to normal human eyes (Bonomi 1964)
# T1 sequence (P02769 25-607): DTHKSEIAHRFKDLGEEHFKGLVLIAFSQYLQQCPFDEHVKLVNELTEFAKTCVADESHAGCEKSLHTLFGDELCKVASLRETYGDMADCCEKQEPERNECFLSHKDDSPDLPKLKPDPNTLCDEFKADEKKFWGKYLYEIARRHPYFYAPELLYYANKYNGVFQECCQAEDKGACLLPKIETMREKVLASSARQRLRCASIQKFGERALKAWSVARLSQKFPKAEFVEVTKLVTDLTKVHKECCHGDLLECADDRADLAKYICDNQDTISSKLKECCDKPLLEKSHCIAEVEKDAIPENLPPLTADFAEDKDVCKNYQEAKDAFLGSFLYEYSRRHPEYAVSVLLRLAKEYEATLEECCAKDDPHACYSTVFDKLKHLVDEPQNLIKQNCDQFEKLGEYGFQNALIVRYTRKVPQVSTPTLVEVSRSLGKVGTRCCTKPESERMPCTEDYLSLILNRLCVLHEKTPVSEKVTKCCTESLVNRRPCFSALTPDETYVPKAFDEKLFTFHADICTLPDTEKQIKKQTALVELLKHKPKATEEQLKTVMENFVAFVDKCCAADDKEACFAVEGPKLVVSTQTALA
molecule,measurement,setting,value
CC(C)NCC(O)c1ccc(OC(=O)C(C)(C)C)c(OC(=O)C(C)(C)C)c1 (racemic),cardiovascular effect,[1],did not produce any unique cardiovascular effect
NC[C@@H](O)c1ccc(O)c(O)c1 [(S)-Norepinephrine],IC50,[2],40.3 ± 4.7 µM
same,Imax,[2],93%
NC[C@H](O)c1ccc(O)c(O)c1 [(R)-Norepinephrine],IC50,[2],39.6 ± 3.4 µM
same,Imax,[2],92%
"CC(C)NC[C@@H](O)c1ccc(O)c(O)c1.O=C(O)C(O)C(O)C(=O)O [(S)-Isoproterenol, (S)-isoproterenol bitartrate]",ocular adverse effects,"[3]; eye drop, 10%, human eyes",only brief mild conjunctival hyperemia and irritation
same,effect on weight gain/loss,"[4]; diabetic rats, Group IV vs Group III",no effect
same,effect on weight gain/loss,"[4]; non-diabetic rats, Group II vs Group I",no effect
same,effect on blood glucose level and diabetes,Groups I vs II and III vs IV,does not affect the blood glucose level
same,protective effect against H2O2 oxidative stress,[5],did not show any protective effect
same,IC50,[2],16.8 ± 0.8 µM
same,Imax,[2],81%
same,effects on blood pressure and pulse rate,[6],only slight and transient effects on blood pressure and pulse rate
(R)-Epinephrine,IC50,[2],15.5 ± 1.7 µM
same,Imax,[2],83%
CC(C)NCC(O)c1ccc(O)c(O)c1 (centres unmarked) [isoproterenol],pKa,[7],8.72 ± 0.05
"CC(C)NCC(O)c1ccc(O)c(O)c1 (racemic) [(R,S)-isoproterenol]",duration of reduction in ocular tension,[8]; [15],at least 12 h
same,reduction in ocular tension,[8]; [15],20%
"CNCC(O)c1ccc(O)c(O)c1 (racemic) [(R,S)-Epinephrine]",IC50,[2],17 ± 1.1 µM
same,Imax,[2],82%
"CNCC(O)c1ccc(OC(=O)C(C)(C)C)c(OC(=O)C(C)(C)C)c1 (racemic) [Dipivefrin, (R,S)-epinephrine dipivalate]",enhancement of ocular absorption,[9],17 time
"CC(C)NC[C@@H](O)c1ccc(O)c(O)c1.Cl [(S)-isoproterenol HCl, (S)-isoproterenol hydrochloride]",ocular adverse effects,"[3]; topical administration of 20%, persisted for several hours",marked conjunctival hyperemia and mild miosis
same,effect on intra-ocular pressure,"[8]; topical administration of up to 20%, human eye",did not show any indication to lower intra-ocular pressure
"CC(C)NC[C@@H](O)c1ccc(OC(=O)C(C)(C)C)c(OC(=O)C(C)(C)C)c1.Cl [(S)-isoproterenol dipivalate, (S)-isoproterenol dipivalate hydrochloride]",Time entered in level 4,[10]; Left eye,14.5 week and 19.5 week and 19 week (2×) and 16 week and 18.5 week and 20.5 week (2×) and 8 week and 22 week
same,Time stayed in level 0,[10]; Left eye,8 week (6×) and 9 week (3×) and 14 week and 18 week and >30 week (4×) and >23 week and 12 week
same,Time stayed in level 1,[10]; Left eye,1 week (4×) and 2.5 week and 2 week (3×) and 0.5 week (2×) and 3 week (2×)
same,Time stayed in level 2,[10]; Left eye,2 week (5×) and 1 week and 1.5 week (2×) and 0.5 week (2×) and 2.5 week and 5 week
same,Time stayed in level 3,[10]; Left eye,2.5 week and 7.5 week and 5.5 week and 3 week and 3.5 week and 7 week and 8 week and 4 week and 5 week and 6.5 week
same,Time entered in level 4,[10]; Right eye,14.5 week and 19.5 week and 19 week (3×) and 15.5 week and 20.5 week (2×) and 8 week and 22 week
same,Time stayed in level 0,[10]; Right eye,8 week (7×) and 13 week and 18.5 week (2×) and 17 week and >30 week (2×) and 18 week and 14 week and 11.5 week and 12 week
same,Time stayed in level 1,[10]; Right eye,1 week (7×) and 0.5 week (5×) and 2.5 week and 2 week and 0 week
same,Time stayed in level 2,[10]; Right eye,2 week (7×) and 0.5 week (2×) and 1.5 week and 1 week (2×) and 5 week and 2.5 week (2×)
same,Time stayed in level 3,[10]; Right eye,2.5 week and 7.5 week and 7 week (2×) and 4 week (2×) and 3 week and 8 week and 6.5 week (2×)
same,"Time stayed in level 0 (cataract initiation), Av ± STD",[10],15.0±8.3 week
same,"Time stayed in level 0 (cataract initiation), Av ± STD",[10]; listed as drug,>15.0 ± 8.3 week
same,"Time stayed in level 1, Av ± STD",[10],1.24 ± 0.82 week
same,"Time stayed in level 2, Av ± STD",[10],1.88 ± 1.09 week
same,"Time stayed in level 3, Av ± STD",[10],5.4 ± 1.9 week
same,"Time stayed in level 1, Av ± STD",[10]; listed as prodrug,1.24±0.82 week
same,"Time stayed in level 2, Av ± STD",[10]; listed as prodrug,1.88±1.09 week
same,"Time stayed in level 3, Av ± STD",[10]; listed as prodrug,5.4±1.9 week
same,percentage of eyes initiating cataract,[10]; eyes initiating at 8.6±1.2 weeks,53%
same,percentage of eyes initiating cataract,[10]; eyes initiating at 17.1±3.1 weeks,26%
same,percentage of eyes initiating cataract,[10]; eyes initiating at >30 weeks (except one eye >23 weeks),21%
same,time of cataract initiation,"[10]; first subgroup, 53% of the eyes",8.6±1.2 weeks
same,time of cataract initiation,"[10]; second subgroup, 26% of the eyes",17.1±3.1 weeks
same,time of cataract initiation,"[10]; third subgroup, 21% of the eyes",> 30 weeks
same,blood glucose level,"Group II, non-diabetic rats receiving prodrug, 27 week period",5.1 ± 0.4 mM
same,blood glucose level,"Group IV, diabetic rats receiving prodrug, stabilized level",27 ± 5 mM
same,degradation on storage,[11],No degradation
same,tolerance of PC12 cells,"[12]; longer incubation up to 24 h, minimum media (data not shown)",500 µM
same,concentration PC12 cells were tolerant to,[12]; short incubation up to 2 hr,up to 500 μM
same,concentration with no visibly noticed cytotoxicity,[13],up to 25 mM
same,protective effect against H2O2 oxidative stress,[5],did not show any protective effect
CC(C)NC[C@H](O)c1ccc(O)c(O)c1 [(R)-Isoproterenol],IC50,[14],18.1 ± 1.1 µM
same,Imax,[2],86%
